# Assay results as given in patent US20230174584A1, “Antibiotic Compounds” (priority 2019, published 2023).
# Assays:
# E. faecium E155 = experiment: microbe, parasite or virus in culture; assay type: cell-based, Enterococcus faecium; conditions: E. faecium E155 VRE (VanA)
# Method: (§1) The antibacterial activity of the compounds was tested against a panel of bacteria, including Gram-positive bacteria (S. aureus ATCC29213, S. aureus USA300, S. aureus LIM-2, NR-45881, S. aureus HIP13419, NR-46413, E. faecium E155, E. faecium E7314, E. faecium E980, E. faecalis E1246, E. faecalis E7406 and S. pneumonia 153). The antibacterial activity of the compounds was further tested against S. aureus NY-155, NR-46236, S. aureus HIP12864, NR-46074, S. aureus 880 (BR-VRSA), NR-49120, E. faecalis E1246, E. faecalis E7604, as well as some Gram-negative bacteria (Escherichia coli and Klebsiella pneumoniae). Minimum inhibitory concentrations (MICs) in μg/mL were performed according to the CLSI guidelines. From glycerol stocks, bacterial strains were cultured on blood agar plates and incubated at 37° C. for 18 h. A single colony was transferred to tryptic soy broth (TSB) with 0.002% polysorbate 80 (p80). For the Enterococcus, VISA and VRSA strains, the cultures were grown at 37° C. until the optical density of the suspension reached a level equivalent to the 0.5 McFarland standard. The bacterial suspensions were diluted in TSB with 0.002% p80 to reach a bacterial cell density of 10^6 CFU/mL. In case of the other (vancomycin-sensitive) S. aureus strains, the direct colony suspension method was used. For these strains, after transfer of the colonies to TSB with 0.002% p80, they were immediately diluted to 10^6 CFU/mL, instead of incubated prior to this dilution. In the case of S. pneumonia, direct colony suspension was used by immediately suspending multiple colonies from fresh blood agar plates in TSB+0.002% p80 to an OD600 of 0.5 and subsequent dilution to 10^6 CFU mL^−1 in TSB+0.002% p80+5% lysed horse blood. Antibiotic dilutions for this strains were also made in TSB+0.002% p80+5% lysed horse blood. Both agar and microplates containing S. pneumonia were incubated at 37° C. with 5% CO2 for 24 h with constant shaking (600 rpm). […] The cultures were grown to exponential phase (OD600=0.5) at 37° C. […] In polypropylene 96-well microtiter plates, test compounds were added in biological triplicates and serial diluted 2-fold by transfer and mixing from one well to the next to achieve a final volume of 50 μL per well. An equal volume of bacterial suspension (10^6 CFU mL^−1) was added to the wells. The plates were sealed with breathable membranes and incubated at 37° C. for 24 h with constant shaking (600 rpm). In polypropylene microtiter plates, 100 μL of the test compounds was added to the first row in biological triplicates, and 50 μL of media was added to the other wells. The compounds were subjected to serial dilution by transfer and mixing of 50 μL from one well to the next. Subsequently, 50 μL of bacterial suspension (10^6 CFU/mL) was added to the wells. The plates were sealed with breathable membranes and incubated at 37° C. for 24 h with constant shaking (600 rpm). Positive growth control consisted of wells with bacterial suspension and without antibiotic. Negative growth control consisted of solely media without bacterial suspension or antibiotic. The MICs were determined from the median of a minimum of triplicates.
# E. faecium E7314 = experiment: microbe, parasite or virus in culture; assay type: cell-based, Enterococcus faecium; conditions: E. faecium E7314 VRE (VanB)
# Method: as §1
# S. aureus ATCC29213 = experiment: MIC assay; assay type: cell-based, Staphylococcus aureus; conditions: S. aureus ATCC29213 MSSA
# Method: as §1
# [1] = test system: S. aureus LIM-2, NR-25881; experiment: MIC assay; assay type: cell-based, Staphylococcus aureus; conditions: S. aureus LIM-2, NR-25881 VISA
# Method: as §1
# [2] = test system: S. aureus HIP12864, NR-46074; experiment: MIC assay; assay type: cell-based, Staphylococcus aureus; conditions: S. aureus HIP12864, NR-46074 VISA
# Method: as §1
# [3] = test system: S. aureus 880 (BR-VRSA), NR-49120; experiment: MIC assay; assay type: cell-based, Staphylococcus aureus; conditions: S. aureus 880, NR-49120 VRSA
# Method: as §1
# [4] = test system: S. aureus NY-155, NR-46236; experiment: MIC assay; assay type: cell-based, Staphylococcus aureus; conditions: S. aureus NY-155, NR-46236 MRSA
# Method: as §1
# E. faecalis E1246 = experiment: MIC assay; assay type: cell-based, Enterococcus faecalis
# Method: as §1
# MRSA USA300 = experiment: MIC assay in the presence of sheep serum; assay type: cell-based, Staphylococcus aureus; conditions: MRSA USA300, TSB + 0.002% p80 + 50% sheep serum
# Method: as §1
# The activity of the compounds was further assessed against MRSA USA300 strain in the presence of sheep) serum in another MIC assay. The cultures that grew in the presence of serum used TSB+0.002% P80+50% sheep serum as growth media, as opposed to normal MICs done in only TSB+0.002% P80.
# E. faecalis E7604 = experiment: microbe, parasite or virus in culture; assay type: cell-based, Enterococcus faecalis; conditions: E. faecalis E7604 VRE (vanB)
# Method: as §1
# E. faecalis E7406 = experiment: microbe, parasite or virus in culture; assay type: cell-based, Enterococcus faecalis; conditions: E. faecalis E7406 VRE (VanB)
# Method: as §1
# S. pneumoniae 153 = experiment: MIC assay; assay type: cell-based; conditions: S. pneumoniae 153; TSB+0.002% p80+5% lysed horse blood
# Method: as §1
# S. aureus USA300 = experiment: microbe, parasite or virus in culture; assay type: cell-based, Staphylococcus aureus
# Method: as §1
# [5] = test system: S. aureus HIP13419, NR-46413; experiment: microbe, parasite or virus in culture; assay type: cell-based, Staphylococcus aureus; conditions: S. aureus HIP13419, NR-46413 VRSA
# Method: as §1
# E. faecium E980 = experiment: MIC assay; assay type: cell-based, Enterococcus faecium; conditions: E. faecium E980 VSE
# Method: as §1
# [6] = E. faecalis E1246 VRE (VanA), Table 7
# [7] = E. faecalis E1246 VRE (vanA), Table 9
SMILES,MIC (E. faecium E155) [µg/mL],MIC (E. faecium E7314) [µg/mL],MIC (S. aureus ATCC29213) [µg/mL],MIC [1] [µg/mL],MIC [2] [µg/mL],MIC [3] [µg/mL],MIC [4] [µg/mL],MIC (E. faecalis E1246; [6]) [µg/mL],MIC (E. faecalis E1246; [7]) [µg/mL],MIC (MRSA USA300) [µg/mL],MIC (E. faecalis E7604) [µg/mL],MIC (E. faecalis E7406) [µg/mL],MIC (S. pneumoniae 153) [µg/mL],"MIC (S. aureus USA300; MRSA USA300, TSB + 0.002% p80) [µg/mL]",MIC (S. aureus USA300; S. aureus USA300 MRSA) [µg/mL],MIC [5] [µg/mL],MIC (E. faecium E980) [µg/mL]
CN[C@H](CC(C)C)C(=O)N[C@H]1C(=O)N[C@@H](CC(N)=O)C(=O)N[C@H]2C(=O)N[C@H]3C(=O)N[C@H](C(=O)N[C@H](C(=O)O)c4cc(O)cc(O)c4-c4cc3ccc4O)[C@H](O)c3ccc(c(Cl)c3)Oc3cc2cc(c3O[C@@H]2O[C@H](CO)[C@@H](O)[C@H](O)[C@H]2O[C@H]2C[C@](C)(NCc3ccc(N=C(N)NC/C=C(\C)CC/C=C(\C)CCC=C(C)C)cc3)[C@H](O)[C@H](C)O2)Oc2ccc(cc2Cl)[C@H]1O [Compound 15],0.125,0.01562,0.03125,0.125,0.125,0.5,0.125,1,1,1,0.031,0.03125,≤0.008,0.063,0.0625,0.125,0.03125
CN[C@H](CC(C)C)C(=O)N[C@H]1C(=O)N[C@@H](CC(N)=O)C(=O)N[C@H]2C(=O)N[C@H]3C(=O)N[C@H](C(=O)N[C@H](C(=O)O)c4cc(O)cc(O)c4-c4cc3ccc4O)[C@H](O)c3ccc(c(Cl)c3)Oc3cc2cc(c3O[C@@H]2O[C@H](CO)[C@@H](O)[C@H](O)[C@H]2O[C@H]2C[C@](C)(NCc3ccc(N=C(N)NC45CC6CC(CC(C6)C4)C5)cc3)[C@H](O)[C@H](C)O2)Oc2ccc(cc2Cl)[C@H]1O [Compound 17],8,0.016,0.016,0.125,≤0.016,8,0.031,16,16,0.125,0.125,0.125,0.016,0.031,0.031,8,≤0.008
CCCCCCCCCCNC(N)=Nc1ccc(CN[C@@]2(C)C[C@H](O[C@H]3[C@H](Oc4c5cc6cc4Oc4ccc(cc4Cl)[C@@H](O)[C@@H](NC(=O)[C@@H](CC(C)C)NC)C(=O)N[C@@H](CC(N)=O)C(=O)N[C@H]6C(=O)N[C@H]4C(=O)N[C@H](C(=O)N[C@H](C(=O)O)c6cc(O)cc(O)c6-c6cc4ccc6O)[C@H](O)c4ccc(c(Cl)c4)O5)O[C@H](CO)[C@@H](O)[C@@H]3O)O[C@@H](C)[C@H]2O)cc1 [Compound 8],0.25,≤0.007812,0.01562,0.016,0.062,0.25,≤0.008,1,1,0.125,≤0.008,≤0.007812,≤0.008,0.063,0.0625,0.063,0.01562
CN[C@H](CC(C)C)C(=O)N[C@H]1C(=O)N[C@@H](CC(N)=O)C(=O)N[C@H]2C(=O)N[C@H]3C(=O)N[C@H](C(=O)N[C@H](C(=O)O)c4cc(O)cc(O)c4-c4cc3ccc4O)[C@H](O)c3ccc(c(Cl)c3)Oc3cc2cc(c3O[C@@H]2O[C@H](CO)[C@@H](O)[C@H](O)[C@H]2O[C@H]2C[C@](C)(NCc3ccc(N=C(N)NCC45CC6CC(CC(C6)C4)C5)cc3)[C@H](O)[C@H](C)O2)Oc2ccc(cc2Cl)[C@H]1O [Compound 18],2,≤0.008,≤0.008,0.016,≤0.016,2,≤0.008,16,16,0.031,≤0.008,≤0.008,≤0.008,≤0.008,≤0.008,2,≤0.008
CCCCCCNC(N)=Nc1ccc(CNC2(C)CC(OC3C(Oc4c5cc6cc4Oc4ccc(cc4Cl)C(O)C4NC(=O)C(NC(=O)C6NC(=O)C(CC(N)=O)NC(=O)C(NC(=O)C(CC(C)C)NC)C(O)c6ccc(c(Cl)c6)O5)c5ccc(O)c(c5)-c5c(O)cc(O)cc5C(C(=O)O)NC4=O)OC(CO)C(O)C3O)OC(C)C2O)cc1 (stereo not drawn) [Compound 4],8,0.03125,0.0625,0.25,0.5,16,0.063,32,32,0.063,0.25,0.25,0.016,0.063,0.0625,4,0.03125
CCCCCCCCCCCCNC(N)=Nc1ccc(CN[C@@]2(C)C[C@H](O[C@H]3[C@H](Oc4c5cc6cc4Oc4ccc(cc4Cl)[C@@H](O)[C@@H](NC(=O)[C@@H](CC(C)C)NC)C(=O)N[C@@H](CC(N)=O)C(=O)N[C@H]6C(=O)N[C@H]4C(=O)N[C@H](C(=O)N[C@H](C(=O)O)c6cc(O)cc(O)c6-c6cc4ccc6O)[C@H](O)c4ccc(c(Cl)c4)O5)O[C@H](CO)[C@@H](O)[C@@H]3O)O[C@@H](C)[C@H]2O)cc1 [Compound 9],0.125,0.03125,0.125,0.5,0.25,0.25,0.5,1,1,1,0.063,0.0625,≤0.008,0.5,0.5,0.125,0.125
